The results in this text go back to ChEMBL document CHEMBL1142712, “Identification of small molecule chemical inhibitors of the collagen-specific chaperone Hsp47” (J Med Chem, 2005).

pIC50: −log10 of the molar value.

This test deals with T1, Serpin H1 (Homo sapiens, UniProt P50454).
T1 sequence (P50454 whole entry): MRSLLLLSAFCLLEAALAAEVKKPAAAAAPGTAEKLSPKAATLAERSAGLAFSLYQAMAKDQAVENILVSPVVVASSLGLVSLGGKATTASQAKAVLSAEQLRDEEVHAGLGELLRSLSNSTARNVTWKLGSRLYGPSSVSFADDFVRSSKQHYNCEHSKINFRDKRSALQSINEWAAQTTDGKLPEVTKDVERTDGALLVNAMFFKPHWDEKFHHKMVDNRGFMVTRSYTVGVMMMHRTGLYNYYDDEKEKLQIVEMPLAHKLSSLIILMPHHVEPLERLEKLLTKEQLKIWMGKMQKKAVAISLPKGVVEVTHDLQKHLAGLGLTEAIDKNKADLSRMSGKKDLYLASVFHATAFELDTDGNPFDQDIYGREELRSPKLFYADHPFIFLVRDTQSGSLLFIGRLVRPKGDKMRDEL
Description: Inhibitory concentration against Hsp47 collagen chaperone in turbidity assay.
As a reminder, the pIC50 is the IC50 on a negative log10 scale, so that one unit is a factor of ten. `COc1ccc(C(C[N+](=O)[O-])Sc2ccc(N)cc2)cc1` (centres undefined) had a negative-log IC50 (pIC50) of 4.58. For `Cc1cc(C(=O)CSc2nc(O)c(C#N)c(-c3cccs3)n2)ccc1Cl` the value was 5.20.

`COC(=O)c1cc(Cl)cc2c1N[S+]([O-])S2` (centres undefined) gave a negative logarithm of the IC50 (pIC50) of 5.51. In turn, `Nc1ccc(SC(C[N+](=O)[O-])c2ccc(F)cc2)cc1` (centres undefined) had a pIC50 of 4.58.
